Holding throughout (type): cell-based
One assay relates to SREBP-2. Kind of assay: SREBP-2 expression in cultured primary human hepatocytes. The conditions noted are these: procedure of Example 6, read-out: SREBP-2 mRNA inhibition (EC50). The protocol: (§1) FIG. 9. Effects of HPN-01 on the expression of SREBP-1 (master regulator of hepatic glucose metabolism and fatty acid synthesis) and SREBP-2 (master regulator of cholesterol homeostasis in cells) in cultured primary human hepatocytes.
(§2) Cultured primary human hepatocytes were treated with various concentrations of HPN-01, and the expression levels of SREBP-1 (master regulator of hepatic glucose metabolism and fatty acid synthesis) and SREBP-2 (master regulator of cholesterol homeostasis in cells) were subsequently determined.
(§3) The ability of each HPN-01 derivative obtained from the synthesis methods described above, to inhibit SREBP-1 and SREBP-2 mRNA expression in primary hepatocytes, was tested using the procedure outlined in Example 6. The results of this analysis are shown in Table 6 (third and fourth columns).

The subject of another assay is Huh7 cells. The experiment in a line: LD content in Huh7 cells pre-treated with insulin, Oil-Red-O staining, absorbance OD 540 nm. The settings on record: procedure of Example 3, read-out: LD content inhibition (EC50). The protocol:
FIG. 6. […] Spectrophotometric absorbance of untreated or HPN-01-treated Huh7 cells pre-incubated with 1 mM insulin is shown. LD contents were stained using Oil Red O, and measured by determining spectrophotometer absorbance under OD 540 nm.
Huh7 cells were mock treated or pre-treated with 1 mM insulin, and subsequently treated with indicated amounted of HPN-01.
The ability of each HPN-01 derivative obtained from the synthesis methods described above, to inhibit LD formation in hepatocytes, was tested using the procedure outlined in Example 3. The results of this analysis are shown below in Table 6 (second column).

The subject of another assay is SREBP-1. The experiment in a line: SREBP-1 expression in cultured primary human hepatocytes. The conditions noted are these: procedure of Example 6, read-out: SREBP-1 mRNA inhibition (EC50). The protocol: as §1, §2, §3
[1] abbreviates: Homo sapiens, Huh-7, Huh7 cells.

Among the data in US11000491B2, “Amino-aryl-benzamide compounds and methods of use thereof” (HEPANOVA, INC., priority 2017, dated 2021) are EC50 values, retold here.

Read-outs that look alike come from different tables or passages of the source.

As to `NC(=O)c1cc(-c2ccc(Br)cc2)cc(-c2ccc(OP(=O)(O)O)cc2)c1N` [HPN-01416, 6′-amino-4″-bromo-5′-carbamoyl-[1,1′:3′,1″-terphenyl]-4-yl dihydrogen phosphate], the concentration giving a half-maximal response (EC50) in the assay on SREBP-2 (Hepatocyte) came to 4010 nM; in the assay with Huh7 cells (setting [1]), 1510 nM; in the assay on SREBP-1 (Hepatocyte), 3020 nM.
Consider `NC(=O)c1cc(-c2ccc(Cl)cc2)cc(-c2ccc(N3CC=NC3=O)cc2)c1N` [HPN-01420, 4′-amino-4-chloro-4″-(2-oxo-2,5-dihydro-1H-imidazol-1-yl)-[1,1′:3′,1″-terphenyl]-5′-carboxamide], for which the half-maximal effective concentration (EC50) in the assay on SREBP-2 (Homo sapiens, Hepatocyte) was 2370 nM; in the assay on Huh7 cells (setting [1]), 420 nM; in the assay with SREBP-1 (Homo sapiens, Hepatocyte) it was 2140 nM.
Turning to `NC(=O)c1cc(-c2ccc(Cl)cc2)cc(OCCc2ccc(S(N)(=O)=O)cc2)c1N` [HPN-01423, 4-amino-4′-chloro-5-(4-sulfamoylphenethoxy)-[1,1′-biphenyl]-3-carboxamide], the EC50 was 2370 nM with SREBP-2 (Homo sapiens, Hepatocyte); 810 nM in the assay on Huh7 cells (setting [1]); 1360 nM with SREBP-1 (Homo sapiens, Hepatocyte).
For `CCCC(=O)Oc1cccc(/C=C/c2cc(C(N)=O)c(N)c(-c3ccc(S(N)(=O)=O)cc3)c2)c1` [HPN-01111, (E)-3-(2-(6-amino-5-carbamoyl-4′-sulfamoyl-[1,1′-biphenyl]-3-yl)vinyl)phenyl butyrate], the EC50 in the assay on SREBP-2 (Homo sapiens, Hepatocyte) worked out at 2440 nM; in the assay on Huh7 cells (setting [1]), 750 nM; in the assay on SREBP-1 (Homo sapiens, Hepatocyte) it was 2080 nM.
Take `NC(=O)c1cc(/C=C/c2cccc(Br)c2)cc(-c2ccc(S(N)(=O)=O)cc2)c1N` [HPN-01103, (E)-2-amino-5-(3-bromostyryl)-4′-sulfamoyl-[1,1′-biphenyl]-3-carboxamide]: the EC50 in the assay on SREBP-2 (Homo sapiens, Hepatocyte) amounted to 3080 nM; in the assay on Huh7 cells (setting [1]), 990 nM; in the assay with SREBP-1 (Homo sapiens, Hepatocyte) it was 2140 nM.
The matching figures for `NC(=O)c1cc(C2CCC(Br)C2)cc(-c2ccc(S(N)(=O)=O)cc2)c1N` (stereo not drawn) [HPN-01321, 2-amino-5-(3-bromocyclopentyl)-4′-sulfamoyl-[1,1′-biphenyl]-3-carboxamide]: 5310 nM, 1760 nM and 3060 nM.
Consider `NC(=O)c1cc(/C=C/C(=O)OCc2ccccc2)cc(-c2ccc(S(N)(=O)=O)cc2)c1N` [HPN-01120, benzyl (E)-3-(6-amino-5-carbamoyl-4′-sulfamoyl-[1,1′-biphenyl]-3-yl)acrylate], for which the EC50 with SREBP-2 (Homo sapiens, Hepatocyte) was 5100 nM; with Huh7 cells (setting [1]) it was 680 nM; in the assay with SREBP-1 (Homo sapiens, Hepatocyte), 6440 nM.
On the same counts, the results for `Nc1c(C(=O)NCc2ccc[nH]2)cc(-c2ccc(Cl)cc2)cc1-c1ccc(S(N)(=O)=O)cc1` [HPN-01629, N-((1H-pyrrol-2-yl)methyl)-4′-amino-4-chloro-4″-sulfamoyl-[1,1′:3′,1″-terphenyl]-5′-carboxamide] are 8600 nM, 1370 nM and 2000 nM.
On the same counts, the results for `COc1ccc(C#Cc2cc(C(N)=O)c(N)c(-c3ccc(S(N)(=O)=O)cc3)c2)cc1` [HPN-01204, 2-amino-5-((4-methoxyphenyl)ethynyl)-4′-sulfamoylbiphenyl-3-carboxamide] are 4590 nM, 1010 nM and 4180 nM.
The matching figures for `NC(=O)Nc1ccc(-c2cc(-c3ccc(Cl)cc3)cc(C(N)=O)c2NC(=O)CCO)cc1` [HPN-01520, 4-chloro-4′-(3-hydroxypropanamido)-4″-ureido-[1,1′:3′,1″-terphenyl]-5′-carboxamide]: 4450 nM, 2510 nM and 3010 nM.
As for “2-amino-5-((4-fluorophenyl)ethynyl)-4′-sulfamoylbiphenyl-3-carboxamide [HPN-01203]”, the EC50 in the assay with SREBP-2 was 2100 nM; in the assay with Huh7 cells (Huh7 cells), 550 nM; in the assay with SREBP-1 it was 1700 nM.
Turning to `CC(=O)Nc1ccc(-c2cc(-c3ccc(Cl)cc3)cc(C(N)=O)c2N)cc1` [HPN-01407, 4″-acetamido-4’-amino-4-chloro-[1,1′:3′,1″-terphenyl]-5′-carboxamide], the EC50 in the assay on SREBP-2 (Homo sapiens, Hepatocyte) was found to be 9690 nM; with Huh7 cells (setting [1]), 1070 nM; in the assay with SREBP-1 (Homo sapiens, Hepatocyte) it was 5410 nM.
Consider `CCCCNc1c(C(N)=O)cc(-c2ccc(Cl)cc2)cc1-c1ccc(S(N)(=O)=O)cc1` [HPN-01533, 4′-(butylamino)-4-chloro-4″-sulfamoyl-[1,1′:3′,1″-terphenyl]-5′-carboxamide], for which the EC50 with SREBP-2 (Homo sapiens, Hepatocyte) stood at 11700 nM; in the assay on Huh7 cells (setting [1]) it was 480 nM; in the assay on SREBP-1 (Homo sapiens, Hepatocyte), 2830 nM.
The matching figures for `CC(=O)Oc1ccc(/C=C/c2cc(C(N)=O)c(N)c(-c3ccc(S(N)(=O)=O)cc3)c2)cc1` [HPN-01105, (E)-4-(2-(6-amino-5-carbamoyl-4′-sulfamoyl-[1,1′-biphenyl]-3-yl)vinyl)phenyl acetate]: 5260 nM, 1090 nM and 3240 nM.
In the case of `NC(=O)c1cc(-c2ccc(Br)cc2)cc(-c2ccc(S(N)(=O)=O)cc2)c1NC(=O)CCO` [HPN-01513, 4-bromo-4′-(3-hydroxypropanamido)-4″-sulfamoyl-[1, 1′:3′,1″-terphenyl]-5′-carboxamide], the EC50 in the assay with SREBP-2 (Homo sapiens, Hepatocyte) came to 2880 nM; in the assay with Huh7 cells (setting [1]) it was 680 nM; with SREBP-1 (Homo sapiens, Hepatocyte), 1630 nM.
As to `NC(=O)c1cc(-c2ccc(Cl)cc2)cc(-c2ccc(OP(=O)(O)O)cc2)c1N` [HPN-01405, 6′-amino-5′-carbamoyl-4″-chloro-[1,1′:3′,1″-terphenyl]-4-yl dihydrogen phosphate], the EC50 was 3980 nM in the assay with SREBP-2 (Hepatocyte), 760 nM in the assay with Huh7 cells (setting [1]) and 2500 nM in the assay with SREBP-1 (Hepatocyte).
`CC(C)NC(=O)Nc1ccc(-c2cc(-c3ccc(Cl)cc3)cc(C(N)=O)c2N)cc1` [HPN-01430, 4′-amino-4-chloro-4″-(3-isopropylureido)-[1,1′:3′,1″-terphenyl]-5′-carboxamide]: the EC50 with SREBP-2 (Homo sapiens, Hepatocyte) worked out at 4370 nM; in the assay on Huh7 cells (setting [1]) it was 5360 nM; with SREBP-1 (Homo sapiens, Hepatocyte), 1880 nM.
For `NC(=O)c1cc(-c2ccc(Br)cc2)cc(-c2ccc(S(N)(=O)=O)cc2)c1NC(=O)C1CC1` [HPN-01525, 4-bromo-4′-(cyclopropanecarboxamido)-4″-sulfamoyl-[1,1′:3′,1″-terphenyl]-5′-carboxamide], the EC50 in the assay with SREBP-2 (Homo sapiens, Hepatocyte) stood at 10000 nM; with Huh7 cells (setting [1]), 1450 nM; in the assay on SREBP-1 (Homo sapiens, Hepatocyte) it was 5610 nM.
On the same counts, the results for `Nc1c(C(=O)Nc2ccsc2)cc(-c2ccc(Cl)cc2)cc1-c1ccc(S(N)(=O)=O)cc1` [HPN-01627, 4′-amino-4-chloro-4″-sulfamoyl-N-(thiophen-3-yl)-[1,1′:3′,1″-terphenyl]-5′-carboxamide] are 4310 nM, 1200 nM and 1950 nM.
For `CNC(=O)c1cc(-c2ccc(Br)cc2)cc(-c2ccc(S(N)(=O)=O)cc2)c1N` [HPN-01602, 4′-amino-4-bromo-N-methyl-4″-sulfamoyl-[1,1′:3′,1″-terphenyl]-5′-carboxamide], the EC50 in the assay on SREBP-2 (Homo sapiens, Hepatocyte) amounted to 4730 nM; in the assay on Huh7 cells (setting [1]), 2320 nM; in the assay on SREBP-1 (Homo sapiens, Hepatocyte), 3320 nM.
On the same counts, the results for `NC(=O)c1cc(C#Cc2cccc(Br)c2)cc(-c2ccc(S(N)(=O)=O)cc2)c1N` [HPN-01208, 2-amino-5-((3-bromophenyl)ethynyl)-4′-sulfamoyl-[1,1′-biphenyl]-3-carboxamide] are 5770 nM, 1690 nM and 3250 nM.
The matching figures for `NC(=O)c1cc(Oc2cccc(C(=O)O)c2)cc(-c2ccc(S(N)(=O)=O)cc2)c1N` [HPN-01318, 3-((6-amino-5-carbamoyl-4′-sulfamoyl-[1,1′-biphenyl]-3-yl)oxy)benzoic acid]: 1160 nM, 310 nM and 770 nM.
For the compound `Nc1c(C(=O)Nc2cccnc2)cc(-c2ccc(Cl)cc2)cc1-c1ccc(S(N)(=O)=O)cc1` [HPN-01625, 4′-amino-4-chloro-N-(pyridin-3-yl)-4″-sulfamoyl-[1,1′:3′,1″-terphenyl]-5′-carboxamide], the concentration for a half-maximal effect (EC50) with SREBP-2 (Homo sapiens, Hepatocyte) came to 18800 nM; in the assay on Huh7 cells (setting [1]), 2320 nM; in the assay with SREBP-1 (Homo sapiens, Hepatocyte), 3320 nM.
As for “decyl (E)-3-(6-amino-5-carbamoyl-4′-sulfamoyl-[1,1′-biphenyl]-3-yl)acrylate [HPN-01119]”, the EC50 worked out at 4170 nM in the assay on SREBP-2, 1080 nM in the assay on Huh7 cells (Huh7 cells) and 2710 nM in the assay with SREBP-1.
Regarding `Cc1ccccc1C(=O)OCC#Cc1cc(C(N)=O)c(N)c(-c2ccc(S(N)(=O)=O)cc2)c1` [HPN-01212, 3-(6-amino-5-carbamoyl-4′-sulfamoyl-[1,1′-biphenyl]-3-yl)prop-2-yn-1-yl 2-methylbenzoate], the concentration giving a half-maximal response (EC50) is 1850 nM in the assay on SREBP-2 (Homo sapiens, Hepatocyte); 750 nM in the assay on Huh7 cells (setting [1]); 2270 nM in the assay on SREBP-1 (Homo sapiens, Hepatocyte).
Turning to “(E)-2-amino-5-(3-oxo-3-(phenylamino)prop-1-en-1-yl)-4′-sulfamoyl-[1,1′-biphenyl]-3-carboxamide [HPN-01125]”, the EC50 worked out at 4270 nM with SREBP-2, 380 nM with Huh7 cells (Huh7 cells) and 2800 nM in the assay with SREBP-1.
